Legend:
ICR mice = experiment: Passive avoidance task (cognitive ability enhancement); type: in vivo, mouse; conditions: 5 mg/kg oral once per day for 3 days; control 165.50±23.39 seconds; p<0.05
Method: Male ICR mice having a weight of 25-28 g were obtained and nurtured in an animal laboratory at Kyunghee University Graduate School of East-West Medicine Science for 7 days for adaptation. Water and feed were freely supplied, and the temperature (22±2[…]), humidity (53±3%), and a cycle of brightness and darkness (12 hours) were automatically controlled. Shogaol used was obtained from WAKO Company (Japan).
Mice were divided into two groups, each of which consisted of 10 mice. A first group (control) was orally administered with 10% dimethyl sulfoxide in an amount of 5 ml per mouse weight kg for 3 days, and a second group was orally administered with 5 mg/kg of shogaol dissolved in 10% dimethyl sulfoxide for 3 days. […]
In a test device having an inner structure divided into two identical spaces with a door therebetween, on a first day, one space was bright and the other space was dark, and a test animal was allowed to stay in the bright space for 10 seconds and then the door was opened, and when the test animal moved toward the dark space, 0.25 mA of an electrical stimulation was applied to the feet of the test animal. After 24 hours, the same passive avoidance task was performed and a time during which the test animal stayed in the light space was measured. […]

[1] = tested on: C57BL/6 mouse having MPTP-induced Parkinson's disease; experiment: Pole test in MPTP-induced Parkinson's disease model; type: in vivo; conditions: 10 mg/kg oral once per day for 5 days, MPTP 30 mg/kg i.p.
Method: 7-week old C57BL/6 based male mice (19-22 g) were obtained and nurtured in an animal laboratory at Kyunghee University Graduate School of East-West Medicine
Science for one week or more for adaptation. Water and feed were freely supplied, and the temperature (22±2[…]), humidity (53±3%), and a cycle of brightness and darkness (12 hours) were automatically controlled. Shogaol used was obtained from WAKO Company (Japan).
Mice were divided into three groups, each of which consisted of 6 mice. A first group (control) and a second group (MPTP group) were orally administered once per day with 10% dimethyl sulfoxide in an amount of 5 ml per mouse weight kg for 5 days, and a third group (shogaol-administered group) was orally administered once per day with 10 mg/kg of shogaol dissolved in 10% dimethyl sulfoxide for 5 days. […]
On a day after the last day of the 5-day administration period, a pole test was performed using a pole having a height of 50 cm and a diameter of 1 cm. A C57bl/6 mouse was placed on the pole with its head upward, and a time during which the mouse turns a summit of the pole at an angle of 180° and moves downward until its four feet touch the ground was measured. […]

[2] = tested on: salmonella typhimurium strains (TA 100, TA 1535, TA 98, and TA 1537); experiment: Back mutation test (genotoxicity in bacteria), Salmonella strains; conditions: TA 100, TA 1535, TA 98, TA 1537; compared with negative control
Method: In order to evaluate genotoxicity in bacteria, a back mutation test was performed using histidine-requiring salmonella typhimurium strains (TA 100, TA 1535, TA 98, and TA 1537) and an E. coli strain (E. coli WP2 uvrA). As a result, a positive control has a substantially greater colony number than a negative control. […] Accordingly, it was confirmed that the ginger extract and shogaol all had stability in the genotoxicity test.

[3] = tested on: rat primary mesencephalic dopaminergic cells; experiment: Protection of dopamine cells against MPP+ neurotoxicity (TH immunohistochemistry); type: cell-based; conditions: 0.01 μM, 10 μM MPP+ for 23 hours; MPP+ group 44.25±7.61% of a control
Method: (§1) Female Sprague-Dawley rats (2-week old) were used, and shogaol was obtained from WAKO Company (Japan).
(§2) Fetal mesencephalon tissues of Sprague-Dawley rats […] were desquamated, and mechanically dissociated by using a forcept. The tissues were treated with trypsin and the number of cells was counted, and the cells were seeded on a cover slip coated with poly-L-lysine (PLL), and then proliferated in an incubator including 5% CO2 and 95% air at a temperature of 37 °C for 5 days. A fetal bovine serum (FBS)-free media was treated with 0.01 μM or 0.1 μM of shogaol after the shogaol was diluted, or the ginger extract (the ethanol extract, the hexane fraction, the ethyl acetate fraction, the butanolfraction, and the water fraction prepared according to Example 1) after the ginger extract was diluted. […]
(§3) Cells immobilized by using 4% PFA were washed with PBS and then, dehydrated with 1% hydrogen peroxide for 15 minutes. […] After the color-producing using DAB, a cover slip was separated and then mounted on a slide by using a gel mount and the number of cells was counted.
(§4) Cells were color-produced by immunohistochemistry in the same manner as Experimental Example 3-1, and the number of cells was counted and the results are shown in FIGS. 8 and 9.

[4] = tested on: rat primary mesencephalic dopaminergic cells; experiment: Protection of dopamine cells against 6-OHDA neurotoxicity (TH immunohistochemistry); type: cell-based; conditions: 0.01 μM, 10 μM 6-OHDA for 18 hours; 6-OHDA group 34.00±5.77% of the control
Method: as §1, §2, §3, §4

CCCCC/C=C/C(=O)CCc1ccc(O)c(OC)c1 [shogaol, (E)-1-(4-hydroxy-3-methoxyphenyl)dec-4-en-3-one]
latency time (ICR mice): 240.63 ± 24.14 s | T-la (% of control), pole test [1]: 99.1 ± 8.11% | colony number (back mutation) [2]: the colony number was not increased | number of dopamine positive cells [3]: 91.50±3.38% | number of dopamine positive cells [4]: 57.25±5.65%

Source: patent US9844521B2, “Pharmaceutical composition comprising ginger extract or shogaol” (UNIVERSITY-INDUSTRY COOPERATION GROUP OF KYUNG HEE …, priority 2008, dated 2017)
